# According to patent publication US20150110853A1, “TREATMENT OF RADICAL PROSTATECTOMY-INDUCED ERECTILE DYSFUNCTION” (PANACEA PHARMACEUTICALS, priority 2013, published 2015):
# Experiments:
# cultured neuronal cells = type: cell-based
# Description: (§1) PAN-811 was originally developed for cancer therapy due to its ability to inhibit ribonucleotide reductase, a key enzyme required for DNA synthesis. […] PAN-811 was administered intracerebroventricularly (i.c.v.) at a dose of 50 μg per rat at 1 h after arterial occlusion. […] The effect of a single intravenous (i. v.) bolus injection of PAN-811 was also investigated. […] Mechanistically PAN-811 prevents glutamate-induced excitatory cytotoxicity, veratridine-induced sodium channel opening and related cell death, and staurosporine-induced apoptosis. […] In culture, ischemic condition results in a 19-fold increase in intracellular free calcium. PAN-811 at a dose of 5 μM reduced this elevated level by 72%. […] In addition, PAN-811 effectively suppresses oxidative stress in many ways. […] Importantly, PAN-811 manifested as a free radical scavenger in a cell free system where PAN-811 reduced 500 μM of a stable free radical diphenylpicrylhydrazyl by 70%. Taken together, PAN-811 has manifested as a potent neuroprotectant with dual drug targets—oxidative stress and free calcium.
# [1] = test system: veratridine-induced sodium channel opening; test: veratridine-induced sodium channel opening and related cell death; type: cell-based
# Description: as §1
# [2] = test system: staurosporine-induced apoptosis; test: staurosporine-induced apoptosis; type: cell-based
# Description: as §1
# [3] = test system: human Alzheimer's disease-derived and age-matched olfactory neuroepithelial cells; test: oxidative stress-induced cell death of olfactory neuroepithelial cells; type: cell-based; settings: via suppression of intracellular reactive oxygen species
# Description: as §1
# [4] = test system: ischemic neurodegeneration; settings: 0.45 μM; cited from earlier work
# [5] = test system: hypoxia-induced neuronal cell death; settings: 1.2μM; cited from earlier work
# ribonucleotide reductase = target: T1, ribonucleotide reductase (Homo sapiens, UniProt P31350); settings: cited from earlier work
# T1 sequence (P31350 1-389): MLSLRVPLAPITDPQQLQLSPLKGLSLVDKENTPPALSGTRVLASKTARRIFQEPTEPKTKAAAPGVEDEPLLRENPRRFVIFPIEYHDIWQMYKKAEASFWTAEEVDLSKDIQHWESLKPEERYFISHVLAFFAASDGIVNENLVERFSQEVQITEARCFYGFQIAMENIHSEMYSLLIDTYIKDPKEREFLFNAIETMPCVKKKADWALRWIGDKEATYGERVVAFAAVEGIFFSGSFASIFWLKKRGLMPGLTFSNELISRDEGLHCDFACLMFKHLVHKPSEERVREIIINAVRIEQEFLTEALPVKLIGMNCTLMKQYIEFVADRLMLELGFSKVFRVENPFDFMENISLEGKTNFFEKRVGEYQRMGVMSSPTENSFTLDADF
# T1 sequence (P23921 1-792 partner): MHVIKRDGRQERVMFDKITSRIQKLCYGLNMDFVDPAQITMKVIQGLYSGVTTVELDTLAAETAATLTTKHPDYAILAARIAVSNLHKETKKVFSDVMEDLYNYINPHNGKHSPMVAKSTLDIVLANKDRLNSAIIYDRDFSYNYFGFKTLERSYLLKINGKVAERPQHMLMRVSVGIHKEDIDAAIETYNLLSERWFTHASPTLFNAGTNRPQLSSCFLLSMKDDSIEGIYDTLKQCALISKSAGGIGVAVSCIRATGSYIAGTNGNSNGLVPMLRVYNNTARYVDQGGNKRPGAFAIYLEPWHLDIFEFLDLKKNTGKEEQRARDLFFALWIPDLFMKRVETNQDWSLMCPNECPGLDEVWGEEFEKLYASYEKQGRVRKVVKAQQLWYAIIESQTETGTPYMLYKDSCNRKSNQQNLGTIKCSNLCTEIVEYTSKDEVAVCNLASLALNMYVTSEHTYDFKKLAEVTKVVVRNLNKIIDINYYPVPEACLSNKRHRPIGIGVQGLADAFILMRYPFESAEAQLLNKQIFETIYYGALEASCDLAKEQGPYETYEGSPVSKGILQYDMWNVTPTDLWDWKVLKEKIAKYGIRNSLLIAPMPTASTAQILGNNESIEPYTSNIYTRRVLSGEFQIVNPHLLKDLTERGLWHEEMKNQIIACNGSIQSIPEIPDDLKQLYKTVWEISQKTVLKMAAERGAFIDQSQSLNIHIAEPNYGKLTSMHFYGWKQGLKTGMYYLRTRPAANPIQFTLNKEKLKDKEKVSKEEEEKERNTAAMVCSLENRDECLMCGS
smiles,measurement,setting,value
"NC(=S)N/N=C/c1ncccc1N [PAN-811, 3-aminopyridine-2-carboxaldehyde thiosemicarbazone]",prevention of glutamate-induced excitatory cytotoxicity,cultured neuronal cells,prevents
same,prevention of veratridine-induced sodium channel opening and related cell death,[1],prevents
same,prevention of staurosporine-induced apoptosis,[2],prevents
same,inhibition of oxidative stress-induced cell death,[3],inhibited
same,block of ischemic neurodegeneration,[4],fully blocked
same,halt of hypoxia-induced neuronal cell death,[5],completely halted
same,inhibition of ribonucleotide reductase,ribonucleotide reductase,inhibit
